Laboratory results taken from US6506766B1 (Abbott Laboratories, priority 1998, dated 2003).

molecular target: T1, human glucocorticoid receptor-α [GRX] isoform (Homo sapiens, UniProt P04150); test: Radioligand binding with human glucocorticoid receptor cytosol ([3H]-dexamethasone competition); conditions: GRX cytosol expressed in insect SF21 cells, [3H]-Dex ~0.9 nM, 4° C. overnight; Ki by Cheng-Prusoff, KL ~[…]; read-out: Ki (nM) GR
T1 construct: host or cells: insect SF21 cells (baculovirus)
T1 sequence (P04150 1-777): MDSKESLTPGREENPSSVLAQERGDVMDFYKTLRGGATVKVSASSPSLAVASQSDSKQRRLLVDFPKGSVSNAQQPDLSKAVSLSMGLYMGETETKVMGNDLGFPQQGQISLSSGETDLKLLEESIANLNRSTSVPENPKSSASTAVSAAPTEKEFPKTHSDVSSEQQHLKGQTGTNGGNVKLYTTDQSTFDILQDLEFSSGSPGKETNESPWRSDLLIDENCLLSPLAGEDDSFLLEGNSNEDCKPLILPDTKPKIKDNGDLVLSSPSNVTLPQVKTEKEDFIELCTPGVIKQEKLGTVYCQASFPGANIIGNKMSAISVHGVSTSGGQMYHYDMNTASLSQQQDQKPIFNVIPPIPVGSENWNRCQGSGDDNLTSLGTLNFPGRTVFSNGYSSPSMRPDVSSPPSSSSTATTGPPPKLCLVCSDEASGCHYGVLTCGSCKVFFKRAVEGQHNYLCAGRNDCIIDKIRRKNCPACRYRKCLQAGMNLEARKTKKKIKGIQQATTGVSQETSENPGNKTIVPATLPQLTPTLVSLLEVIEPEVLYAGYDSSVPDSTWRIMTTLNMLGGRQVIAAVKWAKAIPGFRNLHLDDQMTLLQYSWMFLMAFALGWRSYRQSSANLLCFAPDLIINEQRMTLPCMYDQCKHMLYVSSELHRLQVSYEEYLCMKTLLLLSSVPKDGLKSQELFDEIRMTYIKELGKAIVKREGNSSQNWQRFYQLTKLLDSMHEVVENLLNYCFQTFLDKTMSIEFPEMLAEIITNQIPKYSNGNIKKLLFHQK

Going from `CCCC1Oc2cccc(OC)c2-c2ccc3c(c21)C(C)=CC(C)(C)N3` (stereo not drawn) [Example 54, 2,5-Dihydro-10-methoxy-2,2,4-trimethyl-5-propyl-1H-[1]benzopyrano[3,4-f]quinoline] to `COc1cccc2c1-c1ccc3c(c1C(CN)O2)C(C)=CC(C)(C)N3` (stereo not drawn) [Example 206A, 2,5-Dihydro-10-methoxy-5-(aminomethyl)-2,2,4-trimethyl-1H-[1]benzopyrano[3,4-f]quinoline], the Ki rises from 6.6 nM to 4190 nM (630-fold). The first binds more tightly here.

Compared with `C#CCC1Oc2cccc(OC)c2-c2ccc3c(c21)C(C)=CC(C)(C)N3` (stereo not drawn) [Example 66, 2,5-Dihydro-10-methoxy-2,2,4-trimethyl-5-(2-propynyl)-1H-[1]benzopyrano[3,4-f]quinoline], `COc1cccc2c1-c1ccc3c(c1C(C=C(C)C)O2)C(C)=CC(C)(C)N3` (stereo not drawn) [Example 324, 2,5-Dihydro-10-methoxy-5-(2-methylpropenyl)-2,2,4-trimethyl-1H-[1]benzopyrano[3,4-f]quinoline] is 8.9-fold higher in Ki: 2.7 nM for the first, 24 nM for the second. The first binds more tightly here.

First: COc1c(O)ccc2c1-c1ccc3c(c1[C@@H](C1CCCC1)O2)C(C)=CC(C)(C)N3 [Example 265, (+)(R)5-Cyclopentyl-2,5-dihydro-9-hydroxy-10-methoxy-2,2,4-trimethyl-1H-[1]benzopyrano[3,4-f]quinoline]
Second: CCCC1Oc2ccc(O)c(Cl)c2-c2ccc3c(c21)C(C)=CC(C)(C)N3 (stereo not drawn) [Example 411, 2,5-Dihydro-9-hydroxy-10-chloro-2,2,4-trimethyl-5-propyl-1H-[1]benzopyrano[3,4-f]quinoline]
The Ki of the first is 1100-fold higher: 767 nM for the first, 0.68 nM for the second.

Going from `C=CCC1Oc2cccc(C=NO)c2-c2ccc3c(c21)C(C)=CC(C)(C)N3` (stereo not drawn) [Example 446, 10-Carbaldehyde Oxime-5-(2-propenyl)-2,5-dihydro-2,2,4-trimethyl-1H-[1]benzopyrano[3,4-f]quinoline] to `C=CCC1Oc2cccc(OCc3ccccc3)c2-c2ccc3c(c21)C(C)=CC(C)(C)N3` (stereo not drawn) [Example 447, 10-Benzyloxy-5-(2-propenyl)-2,5-dihydro-2,2,4-trimethyl-1H-[1]benzopyrano[3,4-f]quinoline], the Ki rises from 33 nM to 7100 nM (220-fold). The first binds more tightly here.

same assay, conditions: Ki (nM) GR, GRX cytosol expressed in insect SF21 cells, [3H]-Dex ~0.9 nM, 4° C. overnight; Ki by Cheng-Prusoff, KL ~[…]

With `COc1cccc2c1-c1ccc3c(c1[C@H]([C@@H]1C=CCCC1)O2)C(C)=CC(C)(C)N3` [Example 391, (−)(5S,3′S)2,5-Dihydro-10-methoxy-2,2,4-trimethyl-5-(cyclohexen-3-yl)-1H-[1]benzopyrano[3,4-f]quinoline] the Ki was 1.7 nM.

same assay, conditions: read-out: Ki (nM) GR

“2,5-Dihydro-9-hydroxy-10-methoxy-2,2,4-trimethyl-5-((2-fluorophenyl)methyl)-1H-[1]benzopyrano[3,4-f]quinoline [Example 385]” and “2,5-Dihydro-9-hydroxy-10-methoxy-5-propyl-2,2,4-trimethyl-1H-[1]benzopyrano[3,4-f]quinoline [Example 245]” are within 1.5-fold of each other in Ki: 0.9 nM for the first, 0.95 nM for the second.

With “2,5-Dihydro-10-methoxy-5-(3,3-dimethyl-6-cyclohexenyl)-2,2,4-trimethyl-1H-[1]benzopyrano[3,4-f]quinoline [Example 146]” the Ki was 8.3 nM.

molecular target: T2, human progesterone receptor-A [PRA] isoform (Homo sapiens, UniProt P06401); test: Radioligand binding with human progesterone receptor cytosol ([3H]-progesterone competition); conditions: Ki (nM) PR
T2 construct: host or cells: insect SF21 cells (baculovirus)
T2 sequence (P06401 1-769 isoform P06401-2): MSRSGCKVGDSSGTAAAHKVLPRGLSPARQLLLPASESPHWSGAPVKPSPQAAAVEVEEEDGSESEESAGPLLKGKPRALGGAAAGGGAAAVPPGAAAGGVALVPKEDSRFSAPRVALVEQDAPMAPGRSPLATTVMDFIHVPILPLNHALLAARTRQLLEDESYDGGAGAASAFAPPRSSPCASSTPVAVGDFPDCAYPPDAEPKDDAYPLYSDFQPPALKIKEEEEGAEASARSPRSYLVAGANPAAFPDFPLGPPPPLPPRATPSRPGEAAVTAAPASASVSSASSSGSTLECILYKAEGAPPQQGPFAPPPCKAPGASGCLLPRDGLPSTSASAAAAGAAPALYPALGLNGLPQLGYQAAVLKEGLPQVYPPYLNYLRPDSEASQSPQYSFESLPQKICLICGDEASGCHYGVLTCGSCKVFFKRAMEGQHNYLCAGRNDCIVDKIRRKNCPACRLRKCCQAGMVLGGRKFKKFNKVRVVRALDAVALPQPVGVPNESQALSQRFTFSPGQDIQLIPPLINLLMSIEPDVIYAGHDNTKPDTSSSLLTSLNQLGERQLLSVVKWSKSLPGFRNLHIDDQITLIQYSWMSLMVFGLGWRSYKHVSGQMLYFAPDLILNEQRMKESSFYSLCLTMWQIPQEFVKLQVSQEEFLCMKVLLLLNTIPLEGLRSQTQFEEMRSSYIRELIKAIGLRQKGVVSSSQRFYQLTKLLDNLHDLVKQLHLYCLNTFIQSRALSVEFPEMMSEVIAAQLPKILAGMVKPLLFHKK

`COC(=O)CN(C)C(=O)Oc1cccc(C2Oc3cccc(OC)c3-c3ccc4c(c32)C(C)=CC(C)(C)N4)c1` (stereo not drawn) [Example 311, 2,5-Dihydro-10-methoxy-5-(3-(N-methyl-N-(carbomethoxymethyl)aminocarbonyloxy)phenyl)-2,2,4-trimethyl-1H-[1]benzopyrano[3,4-f]quinoline] showed a Ki of at least 10000 nM.

same assay, conditions: PRA cytosol expressed in insect SF21 cells, [3H]Prog ~0.8 nM, 4° C. overnight; Ki by Cheng-Prusoff, KL ~4.5 nM; read-out: Ki (nM) PR

Going from “2,5-Dihydro-9-hydroxy-10-methoxy-2,2,4-trimethyl-5-((2-fluorophenyl)methyl)-1H-[1]benzopyrano[3,4-f]quinoline [Example 385]” to `CC1=CC(C)(C)Nc2ccc3c(c21)C(c1ccccc1)Oc1ccc2c(c1-3)OCO2` (stereo not drawn) [Example 227, 9-10-Methylenedioxy-5-phenyl-2,2,4-trimethyl-1H-2,5-dihydro-[1]benzopyrano[3,4-f]quinoline], the Ki rises from 170 nM to 1930 nM (11-fold).

First: COc1c(O)ccc2c1-c1ccc3c(c1C(c1ccc(F)c(F)c1)O2)C(C)=CC(C)(C)N3 (stereo not drawn) [Example 254, 2,5-Dihydro-9-hydroxy-10-methoxy-2,2,4-trimethyl-5-(3,4-difluorophenyl)-1H-[1]benzopyrano[3,4-f]quinoline]
Second: COc1c(O)ccc2c1-c1ccc3c(c1C(c1cccs1)O2)C(C)=CC(C)(C)N3 (stereo not drawn) [Example 274, 2,5-Dihydro-9-hydroxy-10-methoxy-2,2,4-trimethyl-5-(2-thienyl)-1H-[1]benzopyrano[3,4-f]quinoline]
The Ki of the first is 4.7-fold higher: 1820 nM for the first, 386 nM for the second.

Going from `C=CCOc1ccc2c(c1OC)-c1ccc3c(c1C(CC=C)O2)C(C)=CC(C)(C)N3` (stereo not drawn) [Example 293, 10-Methoxy-9-(3-propenyloxy)-5-(3-propenyl)-2,2,4-trimethyl-1H-2,5-dihydro[1]benzopyrano[3,4-f]quinoline] to `C=CCC1Oc2cccc(Cl)c2-c2ccc3c(c21)C(C)=CC(C)(C)N3` (stereo not drawn) [Example 309, 10-Chloro-5-(3-propenyl)-2,2,4-trimethyl-2,5-dihydro-1H-[1]benzopyrano[3,4-f]quinoline], the Ki falls from 3740 nM to 60.7 nM (62-fold). The second binds more tightly here.

Going from `C=CC1Oc2cccc(OC)c2-c2ccc3c(c21)C(C)=CC(C)(C)N3` (stereo not drawn) [Example 320, 2,5-Dihydro-10-methoxy-5-ethenyl-2,2,4-trimethyl-1H-[1]benzopyrano[3,4-f]quinoline] to `C=CCC1Oc2cccc(CO)c2-c2ccc3c(c21)C(C)=CC(C)(C)N3` (stereo not drawn) [Example 329, 2,5-Dihydro-10-(2-hydroxymethyl)-5-(3-propenyl)-2,2,4-trimethyl-1H-[1]benzopyrano[3,4-f]quinoline], the Ki falls from 3050 nM to 192 nM (16-fold). The second binds more tightly here.

Going from `C=CCC1Oc2cccc(C=O)c2-c2ccc3c(c21)C(C)=CC(C)(C)N3` (stereo not drawn) [Example 330, 2,5-Dihydro-10-formyl-5-(3-propenyl)-2,2,4-trimethyl-1H-[1]benzopyrano[3,4-f]quinoline] to `COc1c(O)ccc2c1-c1ccc3c(c1/C(=C/c1ccccc1)O2)C(C)=CC(C)(C)N3` [Example 365, Z-5-(Benzylidenyl)-9-hydroxy-10-methoxy-2,2,4-trimethyl-1H-2,5-dihydro], the Ki rises from 53 nM to 98 nM (1.8-fold).

Going from `CC1=CC(C)(C)Nc2ccc3c(c21)/C(=C/c1cccc(F)c1)Oc1ccc(O)c(Cl)c1-3` [Example 367, Z-5-(3-Fluorobenzylidenyl)-10-chloro-9-hydroxy-2,2,4-trimethyl-2,5-dihydro-1H-[1]benzopyrano[3,4-f]quinoline] to `COc1c(O)ccc2c1-c1ccc3c(c1C(Cc1cc(F)cc(F)c1)O2)C(C)=CC(C)(C)N3` (stereo not drawn) [Example 382, 2,5-Dihydro-9-hydroxy-10-methoxy-2,2,4-trimethyl-5-(3-5-difluorophenylmethyl)-1H-[1]benzopyrano[3,4-f]quinoline], the Ki rises from 7.6 nM to 150 nM (20-fold). The first binds more tightly here.

`COc1cccc2c1-c1ccc3c(c1[C@H]([C@@H]1C=CCC1)O2)C(C)=CC(C)(C)N3` [Example 390, (−)(5S,3′S)2,5-Dihydro-10-methoxy-2,2,4-trimethyl-5-(cyclopenten-3-yl)-1H-[1]benzopyrano[3,4-f]quinoline] and `COc1cccc2c1-c1ccc3c(c1[C@H]([C@H]1C=CCC1)O2)C(C)=CC(C)(C)N3` [Example 393, (−)(5S,3′R)2,5-Dihydro-10-methoxy-2,2,4-trimethyl-5-(cyclopenten-3-yl)-1H-[1]benzopyrano[3,4-f]quinoline] are within 1.5-fold of each other in Ki: 520 nM for the first, 589 nM for the second.

For `C=CCC1Oc2c(Br)cc(O)c(Cl)c2-c2ccc3c(c21)C(C)=CC(C)(C)N3` (stereo not drawn) [Example 397, 2,5-Dihydro-7-bromo-9-hydroxy-10-chloro-2,2,4-trimethyl-5-allyl-1H-[1]benzopyrano[3,4-f]quinoline], the Ki was 22.8 nM.

same assay, conditions: read-out: Ki (nM) PR

First: 2,5-Dihydro-9-hydroxy-10-methoxy-5-propyl-2,2,4-trimethyl-1H-[1]benzopyrano[3,4-f]quinoline [Example 245]
Second: 2,5-Dihydro-10-methoxy-5-(3,3-dimethyl-6-cyclohexenyl)-2,2,4-trimethyl-1H-[1]benzopyrano[3,4-f]quinoline [Example 146]
The Ki of the first is 70-fold lower: 119 nM for the first, 8300 nM for the second. The first binds more tightly here.
